# From US8343961B2, “Substituted heterocyclic compounds” (ArQule, Inc., priority 2009, dated 2013)
# How the values were obtained:
# EphA8 = target: T1, EphA8 (Homo sapiens, UniProt P29322); assay: EphA8 Kinase Activity Assay; format: biochemical; conditions: read-out: EphA8, % INH, at 30 uM
# T1 sequence (P29322 28-1005): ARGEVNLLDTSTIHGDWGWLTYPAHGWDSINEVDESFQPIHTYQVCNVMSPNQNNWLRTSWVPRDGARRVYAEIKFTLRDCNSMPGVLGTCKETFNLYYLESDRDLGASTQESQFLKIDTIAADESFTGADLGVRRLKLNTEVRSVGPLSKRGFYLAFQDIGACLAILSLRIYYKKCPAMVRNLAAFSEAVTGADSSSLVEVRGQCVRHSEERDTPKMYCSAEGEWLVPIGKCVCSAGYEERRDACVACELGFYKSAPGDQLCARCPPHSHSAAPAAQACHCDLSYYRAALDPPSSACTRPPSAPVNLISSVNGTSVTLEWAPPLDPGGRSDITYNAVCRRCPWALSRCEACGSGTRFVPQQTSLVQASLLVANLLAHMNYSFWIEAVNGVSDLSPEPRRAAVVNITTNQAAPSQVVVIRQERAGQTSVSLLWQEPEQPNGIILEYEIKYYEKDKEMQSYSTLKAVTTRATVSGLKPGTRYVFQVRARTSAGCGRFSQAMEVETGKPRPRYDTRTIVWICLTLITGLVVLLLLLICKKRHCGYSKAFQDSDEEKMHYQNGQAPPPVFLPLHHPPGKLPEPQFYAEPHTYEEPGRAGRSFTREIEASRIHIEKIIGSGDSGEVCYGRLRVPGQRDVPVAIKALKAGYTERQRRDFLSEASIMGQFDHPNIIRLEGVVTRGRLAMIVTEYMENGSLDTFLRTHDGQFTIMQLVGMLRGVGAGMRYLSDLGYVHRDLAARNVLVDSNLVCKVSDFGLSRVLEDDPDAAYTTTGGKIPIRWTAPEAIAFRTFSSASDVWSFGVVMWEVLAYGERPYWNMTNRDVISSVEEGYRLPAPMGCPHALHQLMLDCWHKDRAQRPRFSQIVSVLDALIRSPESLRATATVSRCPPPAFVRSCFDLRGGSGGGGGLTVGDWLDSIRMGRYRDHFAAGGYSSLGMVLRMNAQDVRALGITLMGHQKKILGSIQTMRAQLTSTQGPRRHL
# Protocol: (§1) Nunc Maxisorb plates are coated with streptavidin by overnight incubation with 100 μL per well of 1 μg/ml Streptavidin in DPBS. Prior to the start of the experiment, the plates are washed with TBST (3×200 μL) and blocked for at least 1 hour by adding 150 μL of 5% BSA/TBST. The plates are washed with TBST (3×200 μL/well) and left dry immediately before the capture step.
# The test articles and control (Staurosporine) are prepared using the following assay buffer @ 3× desired final concentration (50 mM Tris-HCl, 0.02 mg/ml BSA, 10 mM MgCl2, 0.1 mM Na3VO4, 1 mM EGTA, 12.5 μM ATP, 0.01% NP-40, 1 mM DTT in 10% glycerol/water). In a reaction plate are added rapidly 20 μl test article (or control) and 20 μl EphA8 (0.12 ng/μl final concentration). The plate is incubated for 15 minutes. To the reaction plate is added 20 μl of Pyk-2 (0.75 ng/μl final concentration). The plate is incubated at room temperature for one hour. From the reaction plate, 50 μl is transferred to the streptavidin coated plate. The capture plate is incubated at room temperature for 30 minutes, then washed 6× with TBST. To the capture plate is added 100 μL/well of Cell Signaling anti-phospho tyrosine at a dilution of 1:3000 in 2% BSA/TBST. The plate is incubated for one hour at room temperature then washed 6× with TBST. To the capture plate is added 100 μL/well of Alkaline Phosphatase Tagged Goat anti Mouse Antibody at a dilution of 1:4000 in 2% BSA/TBST. The plate is incubated for one hour at room temperature then washed 6× with TBST. The fluorescent readout is initiated by the addition of 100 μl/well of Attophos reagent (6 mg/10 mL). The reading is done on the Perkin Elmer Envision system.
# RET kinase = RET kinase (Homo sapiens, UniProt P07949); assay: RET Kinase Activity Assay; format: biochemical; conditions: read-out: Ret, % INH, at 30 uM
# Protocol: as §1, with “The disclosed compounds were assayed for their ability to inhibit the activity of RET kinase. Nunc” for “Nunc”, “Maxwasorb” for “Maxisorb”, “were” for “are”, “μg/mL” for “μg/ml”, “[…])” for “μL/well)”
# The test articles and controls (Staurosporine and Sutent) were prepared using the following assay buffer @ 3× desired final concentration (50 mM […], 0.02 mg/mL BSA, 10 mM MgCl2, 0.1 mM Na3VO4, 1 mM EGTA, 75 μM ATP0.01% NP-40, 2 mM DTT in 10% glycerol/water). In a reaction plate, were added rapidly 20 μL test article (or control) and 20 μL RET (0.25 ng/4 final concentration). The plate was incubated for 15 minutes. To the reaction plate was added 20 μL of Pyk-2 (0.25 ng/4 final concentration). The plate was incubated at room temperature for one hour.
# From the reaction plate, 50 μL was transferred to the streptavidin coated plate. The capture plate was incubated at room temperature for 30 minutes then washed 6× with TBST. To the capture plate was added 100 μL/well of Cell Signaling anti-phospho tyrosine at a dilution of 1:3000 in 2% BSA/TBST. The plate was incubated for one hour at room temperature then washed 6× with TBST. To the capture plate was added 100 μL/well of Alkaline Phosphatase Tagged Goat anti Mouse Antibody at a dilution of 1:4000 in 2% BSA/TBST. The plate was incubated for one hour at room temperature then washed 6× with TBST. The fluorescent readout was initiated by the addition of 100 μL/well of Attophos reagent (6 mg/10 mL). The reading was done on the Perkin Elmer Envision system.
# Sequence of RET kinase (P07949 29-1114): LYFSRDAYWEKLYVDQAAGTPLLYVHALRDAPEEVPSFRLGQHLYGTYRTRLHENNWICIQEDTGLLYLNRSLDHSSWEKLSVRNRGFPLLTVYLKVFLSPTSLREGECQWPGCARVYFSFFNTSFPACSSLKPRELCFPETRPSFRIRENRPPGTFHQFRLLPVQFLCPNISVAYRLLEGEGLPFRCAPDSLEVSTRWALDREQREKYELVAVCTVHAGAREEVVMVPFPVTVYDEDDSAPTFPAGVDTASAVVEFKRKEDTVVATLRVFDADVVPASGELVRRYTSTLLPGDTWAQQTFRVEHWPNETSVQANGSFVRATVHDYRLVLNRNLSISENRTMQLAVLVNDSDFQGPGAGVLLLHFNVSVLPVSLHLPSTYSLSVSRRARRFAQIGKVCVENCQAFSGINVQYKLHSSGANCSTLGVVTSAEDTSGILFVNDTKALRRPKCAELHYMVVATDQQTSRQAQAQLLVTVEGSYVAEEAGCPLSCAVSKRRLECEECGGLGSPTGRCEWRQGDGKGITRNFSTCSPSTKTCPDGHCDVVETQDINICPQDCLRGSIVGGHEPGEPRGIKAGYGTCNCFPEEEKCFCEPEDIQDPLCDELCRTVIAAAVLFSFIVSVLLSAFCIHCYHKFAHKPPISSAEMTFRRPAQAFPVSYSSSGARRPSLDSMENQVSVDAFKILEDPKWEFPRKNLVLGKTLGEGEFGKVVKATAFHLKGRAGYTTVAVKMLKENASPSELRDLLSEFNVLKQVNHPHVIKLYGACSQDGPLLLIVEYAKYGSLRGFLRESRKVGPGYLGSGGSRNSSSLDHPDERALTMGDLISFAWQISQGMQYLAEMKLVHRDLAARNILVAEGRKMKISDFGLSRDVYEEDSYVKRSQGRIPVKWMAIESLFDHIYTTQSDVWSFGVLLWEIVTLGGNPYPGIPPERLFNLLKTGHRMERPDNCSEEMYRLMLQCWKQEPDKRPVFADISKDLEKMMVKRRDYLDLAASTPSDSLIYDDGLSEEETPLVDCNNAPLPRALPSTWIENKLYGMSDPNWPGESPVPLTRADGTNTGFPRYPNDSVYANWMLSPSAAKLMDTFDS
SMILES,inhibition at 30 µM (EphA8),inhibition at 30 µM (RET kinase)
"Nc1nc(N2CCN(Cc3ccc(Cl)cc3)c3ccccc3C2)c2cn[nH]c2n1 [Compound 23, 4-[1-(4-chlorobenzyl)-1,2,3,5-tetrahydro-4H-1,4-benzodiazepin-4-yl]-1H-pyrazolo[3,4-d]pyrimidin-6-amine]",50 to 79%,< 50%
"COc1ccccc1CN1CCN(c2nc(N)nc3[nH]cnc23)Cc2ccccc21 [Compound 9, 6-[1-(2-methoxybenzyl)-1,2,3,5-tetrahydro-4H-1,4-benzodiazepin-4-yl]-9H-purin-2-amine]",< 50%,50 to 79%
"Nc1nc(N2CCN(Cc3ccc(F)cc3F)c3ccccc3C2)c2cn[nH]c2n1 [Compound 38, 4-[1-(2,4-difluorobenzyl)-1,2,3,5-tetrahydro-4H-1,4-benzodiazepin-4-yl]-1H-pyrazolo[3,4-d]pyrimidin-6-amine]",< 50%,< 50%
"COc1cc2c(cc1OC)C(c1cccc(Cl)c1F)N(c1nc(N)nc3[nH]cnc13)CC2 (stereo not shown) [Compound 49, 6-[1-(3-chloro-2-fluorophenyl)-6,7-dimethoxy-3,4-dihydroisoquinolin-2(1H)-yl]-9H-purin-2-amine]",< 50%,< 50%
"Nc1nc(N2CCN(Cc3ccc(F)cc3)c3ccccc3C2)c2cn[nH]c2n1 [Compound 16, 4-[1-(4-fluorobenzyl)-1,2,3,5-tetrahydro-4H-1,4-benzodiazepin-4-yl]-1H-pyrazolo[3,4-d]pyrimidin-6-amine]",50 to 79%,< 50%
"CC(C)c1ccc(CN2CCN(c3nc(N)nc4[nH]ncc34)Cc3ccccc32)cc1 [Compound 4, 4-[1-(4-isopropylbenzyl)-1,2,3,5-tetrahydro-4H-1,4-benzodiazepin-4-yl]-1H-pyrazolo[3,4-d]pyrimidin-6-amine]",< 50%,< 50%
"Nc1nc(N2CCN(CCCc3cccc(F)c3)c3ccccc3C2)c2nc[nH]c2n1 [Compound 39, 6-{1-[3-(3-fluorophenyl)propyl]-1,2,3,5-tetrahydro-4H-1,4-benzodiazepin-4-yl}-9H-purin-2-amine]",< 50%,50 to 79%
"Nc1nc(N2CCN(Cc3ccc(F)c(F)c3)c3ccccc3C2)c2cn[nH]c2n1 [Compound 47, 4-[1-(3,4-difluorobenzyl)-1,2,3,5-tetrahydro-4H-1,4-benzodiazepin-4-yl]-1H-pyrazolo[3,4-d]pyrimidin-6-amine]",< 50%,50 to 79%
"Nc1nc(N2CCN(CCCc3ccccc3)c3ccccc3C2)c2nc[nH]c2n1 [Compound 40, 6-[1-(3-phenylpropyl)-1,2,3,5-tetrahydro-4H-1,4-benzodiazepin-4-yl]-9H-purin-2-amine]",< 50%,50 to 79%
"Cc1cccc(CN2CCN(c3nc(N)nc4[nH]cnc34)Cc3ccccc32)c1 [Compound 33, 6-[1-(3-methylbenzyl)-1,2,3,5-tetrahydro-4H-1,4-benzodiazepin-4-yl]-9H-purin-2-amine]",< 50%,50 to 79%
"Nc1nc(N2CCN(Cc3ccc(F)cc3)c3ccccc3C2)c2nc[nH]c2n1 [Compound 15, 6-[1-(4-fluorobenzyl)-1,2,3,5-tetrahydro-4H-1,4-benzodiazepin-4-yl]-9H-purin-2-amine]",< 50%,50 to 79%
"Cc1ccc(CN2CCN(c3nc(N)nc4[nH]cnc34)Cc3ccccc32)cc1 [Compound 26, 6-[1-(4-methylbenzyl)-1,2,3,5-tetrahydro-4H-1,4-benzodiazepin-4-yl]-9H-purin-2-amine]",< 50%,50 to 79%
"Nc1nc(N2CCN(CCCc3cccc(Cl)c3)c3ccccc3C2)c2cn[nH]c2n1 [Compound 8, 4-{1-[3-(3-chlorophenyl)propyl]-1,2,3,5-tetrahydro-4H-1,4-benzodiazepin-4-yl}-1H-pyrazolo[3,4-d]pyrimidin-6-amine]",< 50%,< 50%
"CC(C)(C)c1ccc(CN2CCN(c3nc(N)nc4[nH]cnc34)Cc3ccccc32)cc1 [Compound 29, 6-[1-(4-tert-butylbenzyl)-1,2,3,5-tetrahydro-4H-1,4-benzodiazepin-4-yl]-9H-purin-2-amine]",50 to 79%,< 50%
"Nc1nc(N2CCN(Cc3ccc(Cl)c(Cl)c3)c3ccccc3C2)c2cn[nH]c2n1 [Compound 43, 4-[1-(3,4-dichlorobenzyl)-1,2,3,5-tetrahydro-4H-1,4-benzodiazepin-4-yl]-1H-pyrazolo[3,4-d]pyrimidin-6-amine]",50 to 79%,50 to 79%
"Cc1cccc(CN2CCN(c3nc(N)nc4[nH]ncc34)Cc3ccccc32)c1 [Compound 34, 4-[1-(3-methylbenzyl)-1,2,3,5-tetrahydro-4H-1,4-benzodiazepin-4-yl]-1H-pyrazolo[3,4-d]pyrimidin-6-amine]",< 50%,< 50%
"COc1ccc(OC)c(CN2CCN(c3nc(N)nc4[nH]cnc34)Cc3ccccc32)c1 [Compound 35, 6-[1-(2,5-dimethoxybenzyl)-1,2,3,5-tetrahydro-4H-1,4-benzodiazepin-4-yl]-9H-purin-2-amine]",< 50%,< 50%
"Nc1nc(N2CCN(Cc3ccc(F)cc3F)c3ccccc3C2)c2nc[nH]c2n1 [Compound 37, 6-[1-(2,4-difluorobenzyl)-1,2,3,5-tetrahydro-4H-1,4-benzodiazepin-4-yl]-9H-purin-2-amine]",< 50%,50 to 79%
"CC(C)c1ccc(CN2CCN(c3nc(N)nc4[nH]cnc34)Cc3ccccc32)cc1 [Compound 3, 6-[1-(4-isopropylbenzyl)-1,2,3,5-tetrahydro-4H-1,4-benzodiazepin-4-yl]-9H-purin-2-amine]",< 50%,< 50%
"Cc1ccccc1CN1CCN(c2nc(N)nc3[nH]cnc23)Cc2ccccc21 [Compound 11, 6-[1-(2-methylbenzyl)-1,2,3,5-tetrahydro-4H-1,4-benzodiazepin-4-yl]-9H-purin-2-amine]",< 50%,50 to 79%
